# ChEMBL document CHEMBL3272142, “Analgesics and narcotic antagonists in the benzomorphan and 8-oxamorphinan series. 5” (1978)
# Experiments:
# Type in all cases: functional
# Mus musculus [1] = assay: Analgesic activity in sc dosed mouse assessed as phenylquinone-induced writhing measured for 10 mins
# Mus musculus [2] = assay: Narcotic antagonist activity in sc dosed mouse assessed as reversal of oxymorphone-induced straub tail response administered 10 mins before oxymorphone challenge
# Rattus norvegicus [3] = assay: Analgesic activity in sc dosed rat assessed as phenylquinone-induced writhing measured for 10 mins
# Mus musculus [4] = assay: Narcotic antagonist activity in sc dosed mouse assessed as reversal of oxymorphone-induced narcosis
# Rattus norvegicus [5] = species on record: Rattus norvegicus; assay: Antagonist activity in rat assessed as morphine-induced analgesia by […] tail flick test
# [6] = Mus musculus, sc, 10 min, read-out: ED50
# [7] = Mus musculus, sc, read-out: ED50
smiles,measurement,setting,value
C=CCC12CCN(CC3CC3)C(Cc3ccc(O)cc31)[C@]2(C)O (stereo partly specified),ED50,Mus musculus [1]; [6],> 40 mg/kg
same,ED50,Mus musculus [2]; [7],0.8 mg/kg
CC(C)=CCN1CC[C@]23CCCO[C@@]2(C)[C@H]1Cc1ccc(O)cc13,ED50,Mus musculus [1]; [6],0.18 mg/kg
same,ED50,Mus musculus [2]; [7],> 40 mg/kg
Oc1ccc2c(c1)[C@@]13CCCC[C@H]1[C@@H](C2)N(CC1CC1)CC3 [CYCLORPHAN],ED50,Mus musculus [1]; [6],0.013 mg/kg
same,ED50,Mus musculus [2]; [7],0.32 mg/kg
same,ED50,Rattus norvegicus [3],0.028 mg/kg
same,ED50,Mus musculus [4],0.1 mg/kg
same,ED50,Rattus norvegicus [5],0.032 mg/kg
Oc1ccc2c(c1)[C@@]13CCCC[C@@]1(O)[C@@H](C2)N(CC1CC1)CC3 [OXILORPHAN],ED50,Mus musculus [1]; [6],12.8 mg/kg
same,ED50,Mus musculus [2]; [7],0.19 mg/kg
same,ED50,Rattus norvegicus [3],8 mg/kg
same,ED50,Mus musculus [4],0.03 mg/kg
same,ED50,Rattus norvegicus [5],0.012 mg/kg
C[C@@]12OCCC[C@@]13CCN(CC1CC1)[C@@H]2Cc1ccc(O)cc13 (stereo in doubt; 6d),ED50,Mus musculus [1],0.19 mg/kg
same,ED50,Mus musculus [2],0.61 mg/kg
Oc1ccc2c(c1)[C@@]13CCCO[C@H]1[C@@H](C2)N(CC1CC1)CC3 (stereo in doubt; (-)-6c),ED50,Mus musculus [1],0.013 mg/kg
same,ED50,Mus musculus [2],0.26 mg/kg
same,ED50,Rattus norvegicus [3],0.09 mg/kg
same,ED50,Mus musculus [4],0.04 mg/kg
same,ED50,Rattus norvegicus [5],0.097 mg/kg
CC1CC23CCN(C)C(Cc4ccc(O)cc42)C3(C)O1 (stereo unspecified),ED50,Mus musculus [1]; [6],0.4 mg/kg
same,ED50,Mus musculus [2]; [7],> 40 mg/kg
CC1CC23CCN(CC4CC4)C(Cc4ccc(O)cc42)C3(C)O1 (stereo unspecified),ED50,Mus musculus [1]; [6],> 40 mg/kg
same,ED50,Mus musculus [2]; [7],5 mg/kg
C=CCN1CC[C@]23CCCO[C@@]2(C)[C@H]1Cc1ccc(O)cc13,ED50,Mus musculus [1]; [6],28 mg/kg
same,ED50,Mus musculus [2]; [7],1 mg/kg
Oc1ccc2c(c1)[C@@]13CCCO[C@H]1[C@@H](C2)N(CC1CC1)CC3 (stereo in doubt; (+)-6c),ED50,Mus musculus [1],>40 mg/kg
same,ED50,Mus musculus [2],>40 mg/kg
C[C@]12OCCC[C@@]13CCN(CC1CC1)[C@@H]2Cc1ccc(O)cc13,ED50,Mus musculus [1]; [6],35 mg/kg
same,ED50,Mus musculus [2]; [7],6 mg/kg
C=CCC12CCN(CC3CCC3)C(Cc3ccc(O)cc31)[C@@H]2O (stereo partly specified),ED50,Mus musculus [1]; [6],11 mg/kg
same,ED50,Mus musculus [2]; [7],4.5 mg/kg
C[C@@]12OCCC[C@@]13CCN(CC1CCC1)[C@@H]2Cc1ccc(O)cc13,ED50,Mus musculus [1]; [6],0.068 mg/kg
same,ED50,Mus musculus [2]; [7],23 mg/kg
CN1CC[C@]23CCCO[C@]2(C)[C@H]1Cc1ccc(O)cc13,ED50,Mus musculus [1]; [6],> 40 mg/kg
same,ED50,Mus musculus [2]; [7],> 40 mg/kg
Oc1ccc2c(c1)[C@@]13CCCO[C@H]1[C@@H](C2)N(CC1CCC1)CC3,ED50,Mus musculus [1]; [6],0.15 mg/kg
same,ED50,Mus musculus [2]; [7],10 mg/kg
C=CCC12CCN(CC3CCC3)C(Cc3ccc(O)cc31)[C@]2(C)O (stereo partly specified),ED50,Mus musculus [1]; [6],1.3 mg/kg
same,ED50,Mus musculus [2]; [7],10 mg/kg
CN1CC[C@]23CCCO[C@@H]2[C@H]1Cc1ccc(O)cc13,ED50,Mus musculus [1]; [6],30 mg/kg
same,ED50,Mus musculus [2]; [7],> 40 mg/kg
Oc1ccc2c(c1)[C@@]13CCCO[C@@H]1[C@@H](C2)N(CC1CC1)CC3,ED50,Mus musculus [1]; [6],8.4 mg/kg
same,ED50,Mus musculus [2]; [7],20 mg/kg
CC1CC23CCN(C)C(Cc4ccc(O)cc42)C3O1 (stereo unspecified),ED50,Mus musculus [1]; [6],1.8 mg/kg
same,ED50,Mus musculus [2]; [7],> 40 mg/kg
Oc1ccc2c(c1)[C@@]13CCCO[C@H]1[C@@H](C2)N(CC1CC1)CC3 (stereo in doubt; 6c),ED50,Mus musculus [1],0.03 mg/kg
same,ED50,Mus musculus [2],0.3 mg/kg
C[C@@]12OCCC[C@@]13CCN(CC1CC1)[C@@H]2Cc1ccc(O)cc13 (stereo in doubt; (-)-6d),ED50,Mus musculus [1],0.105 mg/kg
same,ED50,Mus musculus [2],0.2 mg/kg
same,ED50,Rattus norvegicus [3],0.2 mg/kg
same,ED50,Mus musculus [4],0.014 mg/kg
same,ED50,Rattus norvegicus [5],0.021 mg/kg
CN1CC[C@]23CCCO[C@H]2[C@H]1Cc1ccc(O)cc13,ED50,Mus musculus [1]; [6],0.6 mg/kg
same,ED50,Mus musculus [2]; [7],> 40 mg/kg
C[C@]12OCCC[C@@]13CCN(CC1CCC1)[C@@H]2Cc1ccc(O)cc13,ED50,Mus musculus [1]; [6],16 mg/kg
same,ED50,Mus musculus [2]; [7],5 mg/kg
C=CCC12CCN(C)C(Cc3ccc(O)cc31)[C@@H]2O (stereo partly specified),ED50,Mus musculus [1]; [6],> 40 mg/kg
same,ED50,Mus musculus [2]; [7],> 40 mg/kg
C=CCC12CCN(CC3CC3)C(Cc3ccc(O)cc31)[C@@H]2O (stereo partly specified),ED50,Mus musculus [1]; [6],0.23 mg/kg
same,ED50,Mus musculus [2]; [7],1.9 mg/kg
Oc1ccc2c(c1)[C@@]13CCCC[C@@]1(O)[C@@H](C2)N(CC1CCC1)CC3 [BUTORPHANOL],ED50,Mus musculus [1]; [6],0.051 mg/kg
same,ED50,Mus musculus [2]; [7],0.98 mg/kg
same,ED50,Rattus norvegicus [3],0.04 mg/kg
same,ED50,Mus musculus [4],0.27 mg/kg
same,ED50,Rattus norvegicus [5],0.43 mg/kg
CN1CC[C@]23CCCO[C@@]2(C)[C@H]1Cc1ccc(O)cc13,ED50,Mus musculus [1]; [6],0.03 mg/kg
same,ED50,Mus musculus [2]; [7],> 40 mg/kg
C[C@@]12OCCC[C@@]13CCN(CC1CC1)[C@@H]2Cc1ccc(O)cc13 (stereo in doubt; (+)-6d),ED50,Mus musculus [1],>40 mg/kg
same,ED50,Mus musculus [2],>40 mg/kg
